Test results from PMC9599717, “The Multicellular Effects of VDAC1 N-Terminal-Derived Peptide” (Biomolecules, 2022).

System: U-87MG cells
Assay: Immunoblotting of protein expression in peptide-treated cells
Type: cell-based, human
Conditions: 12 h
Procedure: U-87 MG cells were treated with the indicated concentrations of D-Δ(1-18)N-Ter-Antp peptide in serum-free DMEM for 6 h. Then cells were lysed in lysis buffer (100 mM Tris/HCl pH 8.0, 5% sodium dodecyl sulfate [SDS]), supplemented with a protease inhibitor cocktail (Calbiochem, San Diego, CA, USA). The lysates were vortexed and heated at 70 °C for 10 min. Finally, cell lysates were centrifuged (15,000× g, 10 min at 4 °C), and the protein concentration of the supernatant was determined according to the Lowry assay with a slight modification. Protein samples were stored at −80 °C until subsequent gel electrophoresis. Protein samples (20 μg) were resolved by SDS-polyacrylamide gel electrophoresis and immunoblotted using selected primary antibodies (sources and dilutions are listed in Table S1), followed by incubation with appropriate horseradish peroxidase (HRP)-conjugated secondary antibodies (Table S1). Proteins were detected using the EZ-ECL Enhanced Chemiluminescence Detection Kit (Biological Industries, Beit Haemek, Israel). Band intensities were analyzed with densitometry using FUSION-FX software (Vilber Lourmat, Collegien, France), and the values were normalized to β-actin.
Figure 3 The D-Δ(1-18)N-Ter-Antp peptide induced autophagy and cellular senescence and altered the expression of apoptosis-related proteins. (A,B) U-87MG cells were treated with the indicated concentrations of D-Δ(1-18)N-Ter-Antp peptide for 12 h and then were subjected to immunoblotting for caspase-9, AIF, Bcl-xL, Bcl-2, and Bax and the relative expression level was quantified (B). (C,D) U-87MG cells were treated with the indicated concentrations of D-Δ(1-18)N-Ter-Antp peptide for 12 h and then subjected to immunoblotting for the autophagy markers LC3-I and LC3-II (C) and LC3-II quantification (D). (E,F) U-87MG cells were treated with the indicated concentrations of D-Δ(1-18)N-Ter-Antp peptide for 12 h and then subjected to β-gal activity (blue). Mouse embryonic fibroblast cells at passage 10 (MEF-P10) served as a positive control of senescent cells. Quantification of β-gal staining intensity (F). Data are presented as the mean ± SD, n = 3, * p < 0.05; ** p < 0.01; *** p < 0.001 versus control group. NS, non-specific. The images were captured at 40× and two folds enlargement is shown.
Figure 4 The D-Δ(1-18)N-Ter-Antp induced the altered expression of metabolism and signaling-related proteins. (A,B) U-87MG cells were treated with the indicated concentrations of D-Δ(1-18)N-Ter-Antp peptide at the indicated concentration for 12 h and then subjected to immunoblot analyses of cell lysates for VDAC1, HK-I, ATPsyn5a, and citrate synthase (CS) (A). Quantification of the immunoblot (B). (C–E) Immunoblotting of the indicated proteins c-Jun, NF-κB-p65, p53, CDK2 and IkB-a (C) and their quantitative analysis (D,E). The results were from triplicates of different biological repeats (n = 3) and are presented as the means ± SEM. * p ≤ 0.05; ** p ≤ 0.01; *** p ≤ 0.001.

[1] = immunoblot normalized to β-actin, n = 3

## 19-FTKGYGFGL-26- RQIKIWFQNRRMKWKK [D-Δ(1-18)N-Ter-Antp]
Immunoblot for LC3-I and LC3-II
  Autophagy, appearance of LC3-II: induced
[1]
  Decrease of expression of IκBα: 2 fold
  Decrease of expression of cyclin-dependent kinase 2 (CDK-2): 2 fold
  Enhanced expression of c-Jun: 6 fold
  Enhanced expression of nuclear factor kappa B (NF-κB p65): 3.5 fold
  Enhanced expression of p53: 3 fold
